# Data: ChEMBL document CHEMBL1201862, “PubChem BioAssay data set” (2004)
#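 Cells were grown in 96-well plates and exposed to each compound for 48 hours at five concentrations; endpoints were interpolated linearly between bracketing concentrations, or set to the highest concentration if not reached. GI50 = concentration required for 50% inhibition of growth.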 Calls of active or inactive are those of the source. Rule as the data show it: active = GI50 up to about 1.1 µM and inactive = higher.
# How the values were obtained:
# Test in all cases: NCI tumour cell line growth inhibition, 48 h
# SK-MEL-5 = system: SK-MEL-5
# CAKI-1 = system: CAKI-1
# HT-29 = system: HT-29
# LOX IMVI = system: LOX IMVI
# OVCAR-5 = system: OVCAR-5
# DMS-114 = system: DMS-114
# OVCAR-4 = system: OVCAR-4
# A498 = system: A498
# SF-268 = system: SF-268
# SNB-75 = system: SNB-75
# UO-31 = system: UO-31
# HOP-92 = system: HOP-92
# NCI-H226 = system: NCI-H226
# T47D = system: T47D
# Hs-578T = system: Hs-578T
# BT-549 = system: BT-549
# MDA-MB-231 = system: MDA-MB-231
# DU-145 = system: DU-145
# MDA-MB-435 = system: MDA-MB-435
# MCF7 = system: MCF7
Compound,GI50 (SK-MEL-5),GI50 (CAKI-1),GI50 (HT-29),GI50 (LOX IMVI),GI50 (OVCAR-5),GI50 (DMS-114),GI50 (OVCAR-4),GI50 (A498),GI50 (SF-268),GI50 (SNB-75),GI50 (UO-31),GI50 (HOP-92),GI50 (NCI-H226),GI50 (T47D),GI50 (Hs-578T),GI50 (BT-549),GI50 (MDA-MB-231),GI50 (DU-145),GI50 (MDA-MB-435),GI50 (MCF7)
N#CC1=C(c2ccccc2)OC2(N)OC(c3ccccc3)=C(C#N)C12C#N (stereo not drawn),> 100 µM (inactive),84.1 µM (inactive),> 100 µM (inactive),> 100 µM (inactive),> 100 µM (inactive),51.5 µM (inactive),60.3 µM (inactive),> 100 µM (inactive),> 100 µM (inactive),43.6 µM (inactive),31.5 µM (inactive),,,,,,,,,
Cc1ccc(S(=O)(=O)C2CC2(Cl)Cl)cc1 (stereo not drawn),,26.6 µM (inactive),18.8 µM (inactive),15.9 µM (inactive),> 100 µM (inactive),19.7 µM (inactive),0.0162 µM (active),,34 µM (inactive),55.7 µM (inactive),22 µM (inactive),26 µM (inactive),> 100 µM (inactive),,,,,,,
C=C(CC[C@@H](C)[C@H]1CC[C@H]2[C@@H]3C[C@@H](O)[C@H]4C[C@@H](O)CC[C@]4(CO)[C@H]3CC[C@]12C)C(C)C,8.79 µM (inactive),5.64 µM (inactive),1.98 µM (inactive),3.11 µM (inactive),6.68 µM (inactive),,6.84 µM (inactive),6.62 µM (inactive),6.35 µM (inactive),8.32 µM (inactive),3.42 µM (inactive),8.28 µM (inactive),9.29 µM (inactive),1.79 µM (inactive),6.18 µM (inactive),8.09 µM (inactive),4.17 µM (inactive),3.48 µM (inactive),7.45 µM (inactive),2.67 µM (inactive)
O=c1[nH]cc(F)c(=O)n1C1OC(CO)C(O)C1O (stereo not drawn),> 100 µM (inactive),> 100 µM (inactive),> 100 µM (inactive),> 100 µM (inactive),> 100 µM (inactive),> 100 µM (inactive),> 100 µM (inactive),,> 100 µM (inactive),> 100 µM (inactive),> 100 µM (inactive),> 100 µM (inactive),> 100 µM (inactive),,,,,,,
O=C1c2cccc(O)c2C(=O)c2c(OC3OC(CO)C(O)C(O)C3O)cccc21 (stereo not drawn),16.5 µM (inactive),55.5 µM (inactive),33.3 µM (inactive),37.5 µM (inactive),51.6 µM (inactive),,16.1 µM (inactive),> 100 µM (inactive),22.9 µM (inactive),24 µM (inactive),35.2 µM (inactive),73.8 µM (inactive),> 100 µM (inactive),20.4 µM (inactive),17.8 µM (inactive),21.8 µM (inactive),21.3 µM (inactive),32.2 µM (inactive),18.2 µM (inactive),30.1 µM (inactive)
CC(C)(C)c1cc(Br)c(O)c(CN(Cc2cc(C(C)(C)C)cc(Br)c2O)C2CCCCC2)c1,10.9 µM (inactive),12.3 µM (inactive),6.89 µM (inactive),16.3 µM (inactive),15.7 µM (inactive),,10.5 µM (inactive),13.5 µM (inactive),13.5 µM (inactive),8.55 µM (inactive),14.4 µM (inactive),15.5 µM (inactive),15.6 µM (inactive),9.68 µM (inactive),13.1 µM (inactive),15.8 µM (inactive),15 µM (inactive),13.9 µM (inactive),14.3 µM (inactive),13.9 µM (inactive)
C[Si](C)(c1ccccc1)C1CC(=O)CC(=O)C1,> 100 µM (inactive),> 100 µM (inactive),> 100 µM (inactive),20.8 µM (inactive),> 100 µM (inactive),> 100 µM (inactive),> 100 µM (inactive),,> 100 µM (inactive),> 100 µM (inactive),19.9 µM (inactive),,> 100 µM (inactive),,,,,,,
CCOC(=O)[C@H]1Nc2ccc(O)cc2C2c3ccccc3CC21 (stereo partly drawn),33.3 µM (inactive),> 100 µM (inactive),> 100 µM (inactive),81.3 µM (inactive),> 100 µM (inactive),56.2 µM (inactive),42.1 µM (inactive),> 100 µM (inactive),> 100 µM (inactive),36.9 µM (inactive),98.2 µM (inactive),,> 100 µM (inactive),,,,,,,
COc1nc2c(c(O)c(C)c(=O)n2OC2OCC(OC(C)=O)C(OC(C)=O)C2OC(C)=O)c(=O)n1C (stereo not drawn),> 100 µM (inactive),,> 100 µM (inactive),> 100 µM (inactive),> 100 µM (inactive),> 100 µM (inactive),> 100 µM (inactive),,> 100 µM (inactive),> 100 µM (inactive),> 100 µM (inactive),,> 100 µM (inactive),,,,,,,
CN(C)/C=N/S(=O)(=O)c1nn2c(C=O)c(-c3ccccc3)nc2s1,11.5 µM (inactive),0.658 µM (active),1.94 µM (inactive),14.7 µM (inactive),47.1 µM (inactive),,22.7 µM (inactive),67.6 µM (inactive),29.5 µM (inactive),59.7 µM (inactive),5.36 µM (inactive),17.5 µM (inactive),21.4 µM (inactive),15.7 µM (inactive),19.5 µM (inactive),4.65 µM (inactive),6.81 µM (inactive),23.4 µM (inactive),12.4 µM (inactive),4.93 µM (inactive)
Nc1nc2c(ncn2CCCC(c2ccccc2)P(=O)(O)O)c(=O)[nH]1 (stereo not drawn),> 100 µM (inactive),> 100 µM (inactive),> 100 µM (inactive),> 100 µM (inactive),> 100 µM (inactive),> 100 µM (inactive),,,> 100 µM (inactive),> 100 µM (inactive),> 100 µM (inactive),91.8 µM (inactive),,,,,,,,
Clc1nc(Cl)c(-c2ccccc2)c(Cl)n1,3.18 µM (inactive),1.87 µM (inactive),7.66 µM (inactive),1.66 µM (inactive),4.61 µM (inactive),,2.51 µM (inactive),16.2 µM (inactive),3.19 µM (inactive),0.64 µM (active),4.61 µM (inactive),5.45 µM (inactive),2.3 µM (inactive),2.59 µM (inactive),3.83 µM (inactive),2.61 µM (inactive),3.24 µM (inactive),13.5 µM (inactive),3.24 µM (inactive),3.04 µM (inactive)
COC(=O)C(C(=O)C(=O)Nc1ccc(C(F)(F)F)cc1[N+](=O)[O-])c1csc(-n2nc(-c3ccccc3)cc2-c2ccccc2)n1 (stereo not drawn),,> 100 µM (inactive),> 100 µM (inactive),> 100 µM (inactive),> 100 µM (inactive),> 100 µM (inactive),> 100 µM (inactive),> 100 µM (inactive),,> 100 µM (inactive),> 100 µM (inactive),,> 100 µM (inactive),,,,,,,
CN(C)Cc1c(O)ccc2c1c1c(n2C)C(=O)c2ccccc2C1=O,6.49 µM (inactive),4.52 µM (inactive),1.4 µM (inactive),1.79 µM (inactive),4.16 µM (inactive),,4.28 µM (inactive),4.43 µM (inactive),7.85 µM (inactive),12.3 µM (inactive),4.01 µM (inactive),12.6 µM (inactive),11 µM (inactive),11.7 µM (inactive),18.7 µM (inactive),11.5 µM (inactive),7.8 µM (inactive),3.75 µM (inactive),4.35 µM (inactive),5.86 µM (inactive)
ClCCc1ccccc1CC1=NCCc2ccccc21,22.8 µM (inactive),33 µM (inactive),17.4 µM (inactive),76.7 µM (inactive),40.6 µM (inactive),,43.5 µM (inactive),37.6 µM (inactive),29 µM (inactive),22 µM (inactive),14.4 µM (inactive),28.1 µM (inactive),22.5 µM (inactive),21.9 µM (inactive),28.5 µM (inactive),30.3 µM (inactive),38.1 µM (inactive),> 100 µM (inactive),28.8 µM (inactive),27.7 µM (inactive)
CCCC(S(=O)(=O)c1ccccc1)S(=O)(=O)c1ccccc1,> 100 µM (inactive),> 100 µM (inactive),> 100 µM (inactive),,> 100 µM (inactive),> 100 µM (inactive),> 100 µM (inactive),> 100 µM (inactive),,> 100 µM (inactive),> 100 µM (inactive),,86.7 µM (inactive),,,,,,,
N#CCC1(c2ccc(Cl)cc2)NC(=O)c2ccccc21 (stereo not drawn),> 100 µM (inactive),> 100 µM (inactive),> 100 µM (inactive),> 100 µM (inactive),> 100 µM (inactive),,> 100 µM (inactive),> 100 µM (inactive),> 100 µM (inactive),60.8 µM (inactive),> 100 µM (inactive),> 100 µM (inactive),> 100 µM (inactive),> 100 µM (inactive),> 100 µM (inactive),> 100 µM (inactive),> 100 µM (inactive),> 100 µM (inactive),> 100 µM (inactive),> 100 µM (inactive)
CC(Oc1ccccc1Cl)C(=O)NN1C(=O)CC(=O)N(c2ccccc2)C1=S (stereo not drawn),42.8 µM (inactive),41.2 µM (inactive),54.5 µM (inactive),38.4 µM (inactive),> 100 µM (inactive),,54 µM (inactive),22.3 µM (inactive),86.7 µM (inactive),49.1 µM (inactive),53 µM (inactive),20.4 µM (inactive),38.6 µM (inactive),31.9 µM (inactive),> 100 µM (inactive),54.1 µM (inactive),42.7 µM (inactive),42.9 µM (inactive),42.6 µM (inactive),31 µM (inactive)
